# Patent US8106004B2, “Methods of inhibiting tumor cell aggressiveness using the microenvironment of human embryonic stem cells” (Children's Memorial Hospital, priority 2006, dated 2012)
# Test system: C8161 cells
# Experiment: Soft agar / anchorage independent growth assay, C8161 cells
# Assay type: cell-based, human
# Settings: C8161 treated with anti-Nodal Morpholino
# Experimental: An in vitro colony forming assay was used to analyze colony-forming ability of poorly aggressive C81-61 cells, aggressive C8161 cells, C8161 cells treated with MO^Nodal and C8161 cells treated with MO^Nodal and rescued with recombinant Nodal (100 ng/mL). The assay was conducted using 50,000 cells suspended in 0.35% agarose in RPMI containing 10% serum, which were plated into 6-well dishes on 0.5% agar in the same medium. Colonies grew, and pictures were taken at day 7. After 2 weeks, colonies were stained with Crystal Violet and counted.
# The derivation and phenotypic characteristics of the human melanoma cell lines have been previously described. Seftor, et. al., 2002, Clin. Experim. Metastas. 19:233-246; Seftor, et. al., 2005 Cancer Res. 65:10164-10169. The melanoma cell lines are maintained in RPMI 1640 medium (Invitrogen) supplemented with 10% fetal bovine serum (FBS, Gemini Bioproducts) and 0.1% gentamycin sulfate with the exception of C81-61 cells which are maintained in Ham's FIO medium supplemented with 15% FBS, 1X Mito+ (BD Bioscience) and gentamycin sulfate. Normal human melanocytes are purchased (Cascade Biologics) or isolated from neonatal foreskins. Seftor, et. al., 2005. A single cell suspension is prepared, added to plastic flasks for the adherence of melanocytes and the cells propagated in Medium 254 with Human Melanocyte Growth Supplement (Cascade Biologics) including, 100 units/ml penicillin, 100 μg/ml streptomycin, and 250 ng/mL amphotericin B. The human embryonic stem cell lines are cultured as previously described. Thomson, et. al., 1998, Science 282:1145-1147. Briefly, cells are grown in 6-well plates precoated with 0.1% porcine gelatin and containing 1.9×10^5 irradiated mouse embryonic fibroblasts (strain CF-1; ATCC) per well. The cells are maintained in medium containing DMEM/F12 (1:1), 20% knock-out serum replacement, non-essential minimal amino acids, L-glutamine (Invitrogen), […], and 4 ng/ml FGF-2 (R&D Systems), and are split with collagenase (1 mg/ml) before the colonies begin to overlap. The cultures are determined to be free of mycoplasma contamination using a PCR-based assay (Roche). The normal human neonatal epidermal melanocytes (HEMn-LP; Cascade Biologics, Portland Oreg.), myoepithelial cells (Hs 578 Bst; American Type Culture Collection (ATCC), Manassas, Va.) and primary mammary epithelial cells (HMEpC; Cell Applications Inc., San Diego Calif.) were maintained as per distributor instructions. Live umbilical cord blood stem cells (SC00125; New Jersey Stem Cell Resource at Coriell Institute for Medical Research) amniotic fluid derived stem cells (GM00473, GM00957A) and adult bone marrow derived mesenchymal stem cells (Stem Cell Technologies, Vancouver BC, Canada) were maintained under the recommended conditions. The HTR-8/SVneo is a well characterized immortalized human extravillous cytotrophoblast cell line, and was maintained as previously described Graham et al., 1993, Exp. Cell Res. 206:204-211. […] The expression vector for wild type Nodal was kindly provided by Dr. Daniel Constam (Swiss Institute for Experimental Cancer Research (ISREC), Epalinges, Switzerland) and was transfected into C81-61 cells as previously described. Le Good et al., 2005, Curr. Biol. 15:31-36. […]
substance,measurement,setting,value
"MO^Nodal: FITC-conjugated anti-sense Morpholino to Nodal, 5′-AAGCAGCACCTCCAGCCCTTATATC-3′ [SEQ ID NO: 20] (all phosphorodiamidate morpholino (PMO); FITC conjugated, position not given here)",reduction of colony formation,"after 2 weeks, n=16, p<0.001",57%
same,ability to undergo anchorage-independent growth,soft agar,significantly diminished
